Assay results reported in patent US20240246941A1, “SUBSTITUTED 4-(3-AMINOPROP-1-YL)AMINOQUINOLINE ANALOGS AS MODULATORS OF MELANOMA-ASSOCIATED ANTIGEN 11 UBIQUITIN LIGASE” (ST. JUDE CHILDREN'S RESEARCH HOSPITAL, INC., priority 2020, published 2024).
pIC50: −log10 of the molar value.

Molecular target: interaction between GST-MAGEA11 MHD and FAM-PCF11_4 peptide (MAGE-A11:PCF11) (Homo sapiens (Human), UniProt P43364)
Test: TR-FRET dose response competition assay for disruption of MAGE-A11:PCF11 binding
Details: Dose response TR-FRET screening of nine scaffold groups against MAGE-A11:PCF11; read-out: consensus IC50
In short: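 Competition TR-FRET at room temperature in 50 mM Tris pH 7.5, 20 mM MgCl2, 0.1 mg/ml BSA, 1 mM DTT: final 5 nM GST-MAGEA11 MHD, 5 nM Tb-anti-GST, 200 nM FAM-PCF11_4, 90 min. Ratio 520/490 nm converted to % inhibition; IC50 from sigmoidal fit.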

Sequence of interaction between GST-MAGEA11 MHD and FAM-PCF11_4 peptide (MAGE-A11:PCF11) (P43364 218-429): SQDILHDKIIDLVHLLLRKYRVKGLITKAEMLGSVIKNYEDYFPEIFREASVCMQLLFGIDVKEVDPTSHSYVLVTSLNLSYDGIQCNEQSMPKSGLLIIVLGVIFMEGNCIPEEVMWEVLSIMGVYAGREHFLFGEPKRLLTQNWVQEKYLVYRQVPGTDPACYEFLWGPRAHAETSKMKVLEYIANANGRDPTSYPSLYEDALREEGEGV

Question: With `COc1ccc(Br)cc1-c1nc2c(c(=O)[nH]c(=O)n2Cc2ccccc2)n1C` [SJ000382136-1] as the compound, how does the pIC50 read?
Answer: The pIC50 was 4.16.

Question: With `N#Cc1cccc(CNCCCNc2ccnc3cc(Cl)ccc23)c1` [SJ000523063-1] as the compound, how does the pIC50 read?
Answer: Its pIC50 is 4.16.

Question: With `COc1ccc(CN2C(=O)c3ccccc3NC2c2ccc(C)cc2)cc1` (stereo not shown) [SJ000510741-1] as the compound, how does the pIC50 read?
Answer: The pIC50 was 4.16.

Question: `CC(=O)N(C)C1=C(Cl)C(=O)c2ccccc2C1=O` [SJ000290718-2] was tested. Which pIC50 did it give?
Answer: Its pIC50 is 4.16.

Question: With `COc1ccc(-c2ccc3c(NCCCNCc4cc(F)ccc4OC)ccnc3c2)cc1` [SJ000311297-1] as the compound, how does the pIC50 read?
Answer: The pIC50 was 4.16.

Question: `Cc1ccc(-c2nc(C#N)c(N3CC(C)OC(C)C3)o2)cc1` (stereo not shown) [SJ000478358-1] was tested. Which pIC50 did it give?
Answer: Its pIC50 is 4.16.

Question: `COc1cccc(CNCCCNc2ccnc3cc(-c4ccccc4)ccc23)c1O` [SJ000311283-1] was tested. Which pIC50 did it give?
Answer: Its pIC50 is 4.62.

Question: `CCCn1cnc2cc(-c3ccc(Cl)cc3)sc2c1=O` [SJ000452142-1] was tested. Which pIC50 did it give?
Answer: The pIC50 was 4.16.

Question: How did the pIC50 turn out when `O=C1C(Cl)=C(Nc2ccc(Nc3ccccc3)cc2)C(=O)c2ccccc21` [SJ000299708-1] was run?
Answer: Its pIC50 is 4.16.

Question: `C=CCSc1nc2cc(-c3ccccc3)sc2c(=O)n1CCN1CCOCC1` [SJ000453564-1] was tested. Which pIC50 did it give?
Answer: Its pIC50 is 4.16.

Question: With `CCCc1ccc(C2=C(c3ccc([N+](=O)[O-])cc3)C(=O)OC2)cc1` [SJ000368117-1] as the compound, how does the pIC50 read?
Answer: The pIC50 was 4.16.

Question: How did the pIC50 turn out when `Fc1ccc(Cc2ccc3c(NCCCNCc4cccc5c4OCO5)ccnc3c2)c(Cl)c1` [SJ000311324-1] was run?
Answer: Its pIC50 is 4.69.

Question: How did the pIC50 turn out when `CCCCn1c(=O)[nH]c(=O)c2c1nc(-c1ccc(SC)cc1)n2C` [SJ000382100-1] was run?
Answer: Its pIC50 is 4.16.

Question: `COc1ccc(F)cc1CNCCCNc1ccnc2cc(-c3ccccc3)ccc12` [SJ000311285-1] was tested. Which pIC50 did it give?
Answer: Its pIC50 is 4.55.

Question: With `CCn1c2ccccc2c2cc(CN3CCC(N4CCN(c5ccccc5)CC4)CC3)ccc21` [SJ000112860-1] as the compound, how does the pIC50 read?
Answer: Its pIC50 is 4.16.

Question: With `Cc1ccc(S(=O)(=O)c2nc(-c3cccc([N+](=O)[O-])c3)oc2N2CCOCC2)cc1` [SJ000027482-1] as the compound, how does the pIC50 read?
Answer: The pIC50 was 5.02.

Question: How did the pIC50 turn out when `Clc1ccc2c(NCCCNCc3ccc(-c4ccccc4)cc3)ccnc2c1` [SJ000523064-1] was run?
Answer: Its pIC50 is 4.46.

Question: With `CCCCn1c(=O)[nH]c(=O)c2c1nc(-c1ccc(OC)c(C)c1)n2C` [SJ000425256-1] as the compound, how does the pIC50 read?
Answer: Its pIC50 is 4.16.

Question: `COc1ccc(-c2cc3ncn(CC(=O)NCc4ccccc4F)c(=O)c3s2)cc1` [SJ000449696-1] was tested. Which pIC50 did it give?
Answer: The pIC50 was 4.16.

Question: `Cc1ccc(S(=O)(=O)c2nc(-c3ccc(Br)cc3)oc2N2CCOCC2)cc1` [SJ000230855-1] was tested. Which pIC50 did it give?
Answer: The pIC50 was 4.16.

Question: How did the pIC50 turn out when `O=C1OCC(c2ccc(F)cc2)=C1c1ccc([N+](=O)[O-])cc1` [SJ000368155-1] was run?
Answer: The pIC50 was 4.16.

Question: `CCOP(=O)(OCC)c1nc(-c2ccc(Cl)cc2)oc1N1CCOCC1` [SJ000090230-1] was tested. Which pIC50 did it give?
Answer: The pIC50 was 4.16.

Question: With `CCC(CC)c1ccc2c(NCCCNCc3cccc(OC)c3O)ccnc2c1` [SJ000311267-1] as the compound, how does the pIC50 read?
Answer: The pIC50 was 5.00.

Question: How did the pIC50 turn out when `C=CCn1c(=O)c2c(nc(-c3ccc(S(=O)(=O)O)cc3)n2C)n(C)c1=O` [SJ000287614-4] was run?
Answer: Its pIC50 is 4.12.

Question: How did the pIC50 turn out when `OCCNCCNCc1ccc2[nH]c3ccccc3c2c1` [SJ000053962-1] was run?
Answer: The pIC50 was 4.16.

Question: `CN(C)c1ccc(C2Nc3ccccc3C(=O)N2CCCN2CCOCC2)cc1` (stereo not shown) [SJ000803767-1] was tested. Which pIC50 did it give?
Answer: Its pIC50 is 4.15.

Question: `CCCn1c(-c2cccc([N+](=O)[O-])c2)nc2c1c(=O)[nH]c(=O)n2Cc1ccccc1` [SJ000376601-1] was tested. Which pIC50 did it give?
Answer: The pIC50 was 4.16.

Question: With `CC(NC1=C(Cl)C(=O)c2ccccc2C1=O)C(=O)O` (stereo not shown) [SJ000244608-1] as the compound, how does the pIC50 read?
Answer: Its pIC50 is 4.16.

Question: How did the pIC50 turn out when `COc1ccc(F)cc1CNCCCNc1ccnc2cc(Cc3ccc(F)cc3Cl)ccc12` [SJ000311325-1] was run?
Answer: The pIC50 was 4.75.

Question: `Clc1ccc2c(NCCCNCc3ccccc3)ccnc2c1` [SJ000361100-1] was tested. Which pIC50 did it give?
Answer: The pIC50 was 4.16.

Question: With `COc1cccc(CNCCCNc2ccnc3cc(-c4ccc(C(C)(C)C)cc4)ccc23)c1O` [SJ000311287-1] as the compound, how does the pIC50 read?
Answer: Its pIC50 is 5.33.

Question: With `COC(=O)c1ccc(CNCCCNc2ccnc3cc(Cl)ccc23)cc1` [SJ000523067-1] as the compound, how does the pIC50 read?
Answer: Its pIC50 is 4.16.

Question: With `CCC(COC(C)=O)NC1=C(Cl)C(=O)c2ccccc2C1=O` (stereo not shown) [SJ000149466-1] as the compound, how does the pIC50 read?
Answer: The pIC50 was 4.76.

Question: With `CCC(C)N1C(=O)c2ccccc2NC1c1cccc(OC)c1O` (stereo not shown) [SJ000413320-1] as the compound, how does the pIC50 read?
Answer: Its pIC50 is 4.16.

Question: How did the pIC50 turn out when `Cc1ccc(NC2=C(N)C(=O)c3ccccc3C2=O)cc1` [SJ000562618-1] was run?
Answer: Its pIC50 is 4.22.

Question: How did the pIC50 turn out when `CCn1c2ccccc2c2cc(CN3CCN(CCO)CC3)ccc21` [SJ000145592-1] was run?
Answer: The pIC50 was 4.16.

Question: With `CCCCn1c(=O)[nH]c(=O)c2c1nc(-c1ccc(C#N)cc1)n2C` [SJ000421295-1] as the compound, how does the pIC50 read?
Answer: The pIC50 was 4.16.

Question: With `Cc1ccc(-c2nc(S(=O)(=O)c3ccccc3)c(N3CCOCC3)o2)cc1` [SJ000159484-1] as the compound, how does the pIC50 read?
Answer: Its pIC50 is 4.16.

Question: How did the pIC50 turn out when `CCCN1C(=O)c2ccccc2NC1c1cc(Cl)c(O)c(OC)c1` (stereo not shown) [SJ000414199-1] was run?
Answer: The pIC50 was 4.16.

Question: How did the pIC50 turn out when `CCCn1c(=O)[nH]c(=O)c2c1nc(-c1ccc(OC)cc1)n2CCOC` [SJ000423271-1] was run?
Answer: The pIC50 was 4.16.

Question: With `C=CCOc1ccc(-c2nc3c(c(=O)[nH]c(=O)n3Cc3ccccc3)n2C)cc1Br` [SJ000420085-1] as the compound, how does the pIC50 read?
Answer: The pIC50 was 4.16.

Question: How did the pIC50 turn out when `COc1ccc(-c2nc(S(=O)(=O)c3ccc(C)cc3)c(N3CCOCC3)o2)cc1` [SJ000245271-1] was run?
Answer: The pIC50 was 4.16.

Question: `COC(=O)c1ccc(NC2=C(Cl)C(=O)c3ccccc3C2=O)cc1` [SJ000299646-1] was tested. Which pIC50 did it give?
Answer: The pIC50 was 4.16.

Question: With `Cc1ccc(S(=O)(=O)N2CCN(C3=C(Cl)C(=O)c4ccccc4C3=O)CC2)cc1` [SJ000021282-1] as the compound, how does the pIC50 read?
Answer: The pIC50 was 4.98.

Question: With `COc1cccc(CNCCCNc2ccnc3cc(Cc4ccc(F)cc4)ccc23)c1O` [SJ000311243-1] as the compound, how does the pIC50 read?
Answer: The pIC50 was 4.36.

Same assay, conditions: Table 5, dose response TR-FRET screening of 59 quinoline compounds against MAGE-A11:PCF11; read-out: TR-FRET IC50

Question: `CCC(C)CN(CCCCNc1ccnc2cc(Cl)ccc12)Cc1ccccc1` (stereo not shown) [SJ000361208-2] was tested. Which pIC50 did it give?
Answer: Its pIC50 is under 4.15.

Question: `CCCN(CCCNc1ccnc2cc(C(F)(F)F)ccc12)CCC(C)(C)C` [SJ000520476-1] was tested. Which pIC50 did it give?
Answer: Its pIC50 is under 4.15.

Question: `CCCN(CCCNc1c2ccc(Cl)cc2nc2ccc(OC)cc12)Cc1ccc2[nH]ccc2c1` [SJ000522732-2] was tested. Which pIC50 did it give?
Answer: The pIC50 was under 4.15.

Question: How did the pIC50 turn out when `FC(F)(F)c1ccc(-c2ccc3c(NCCCNCc4ccco4)ccnc3c2)cc1` [SJ000311278-1] was run?
Answer: The pIC50 was 4.64.

Question: With `c1coc(CNCCCNc2ccnc3cc(C4CCCCC4)ccc23)c1` [SJ000311262-1] as the compound, how does the pIC50 read?
Answer: The pIC50 was under 4.15.

Question: `CCCCCN(CCC)CCCNc1ccnc2cc(C(F)(F)F)ccc12` [SJ000361271-1] was tested. Which pIC50 did it give?
Answer: The pIC50 was under 4.15.

Question: `FC(F)(F)c1ccc2c(NCCCNCc3cc4ccccc4s3)ccnc2c1` [SJ000521060-1] was tested. Which pIC50 did it give?
Answer: The pIC50 was under 4.15.

Same assay, conditions: Table 8, representative compounds; read-out: TR-FRET IC50

Question: `c1ccc(Cc2ccc3c(NCCCNCc4cccc5c4OCO5)ccnc3c2)cc1` [SJ000311308] was tested. Which pIC50 did it give?
Answer: Its pIC50 is 4.34.

Question: With `COc1ccc(-c2ccc3c(NCCCNCc4cccc5c4OCO5)ccnc3c2)cc1` [SJ000311296] as the compound, how does the pIC50 read?
Answer: Its pIC50 is 4.16.

Question: `COc1ccc(CNCCCNc2ccnc3cc(Cl)ccc23)cc1O` [SJ000311192] was tested. Which pIC50 did it give?
Answer: The pIC50 was 4.16.

Question: `COc1cccc(CNCCCNc2ccnc3cc(-c4ccccc4)ccc23)c1O` [SJ000311283] was tested. Which pIC50 did it give?
Answer: The pIC50 was 4.62.

Question: How did the pIC50 turn out when `COc1ccc(F)cc1CNCCCNc1ccnc2cc(C3CCCCC3)ccc12` [SJ000311265] was run?
Answer: The pIC50 was 4.62.

Question: With `COc1cccc(CNCCCNc2ccnc3cc(-c4ccc(F)cc4)ccc23)c1O` [SJ000311239] as the compound, how does the pIC50 read?
Answer: Its pIC50 is 4.48.

Question: `FC(F)(F)c1ccc2c(NCCCNCc3ccccc3C(F)(F)F)ccnc2c1` [SJ000521049] was tested. Which pIC50 did it give?
Answer: Its pIC50 is 4.16.

Question: With `COc1cccc(CNCCCNc2ccnc3cc(Cc4cc(C)cc(C)c4)ccc23)c1O` [SJ000311319] as the compound, how does the pIC50 read?
Answer: The pIC50 was 4.63.

Question: With `CC(C)(C)c1ccc(-c2ccc3c(NCCCNCc4cccc5c4OCO5)ccnc3c2)cc1` [SJ000311288] as the compound, how does the pIC50 read?
Answer: Its pIC50 is 5.16.

Question: How did the pIC50 turn out when `CC(C)CCc1ccc2c(NCCCNCc3cccc4c3OCO4)ccnc2c1` [SJ000311248] was run?
Answer: Its pIC50 is 4.56.

Question: How did the pIC50 turn out when `FC(F)(F)c1cccc(CNCCCNc2ccnc3cc(Cl)ccc23)c1` [SJ000521024] was run?
Answer: The pIC50 was 4.16.

Question: How did the pIC50 turn out when `Fc1cccc(C(F)(F)F)c1CNCCCNc1ccnc2cc(Cl)ccc12` [SJ000521031] was run?
Answer: Its pIC50 is 4.16.
